The text below walks through data of patent US11419866B2, “Pharmaceutical composition for sustained release delivery of buprenorphine” (Foresee Pharmaceuticals Co., Ltd., priority 2018, dated 2022).

Marks after values point to notes of the source that are not given here.

Data set [1] in a line: Solubility of buprenorphine in BA/OA combination vehicles at room temperature.
Data set [2] can be described thus: Color stabilization by antioxidant in buprenorphine formulation, visual inspection (Example 3). Type of data set: physicochemical. The note with it: overtime under stress condition.

For the compound `CO[C@]12CC[C@@]3(C[C@@H]1[C@](C)(O)C(C)(C)C)[C@H]1Cc4ccc(O)c5c4[C@@]3(CCN1CC1CC1)[C@H]2O5` [buprenorphine, (25)-2-[(−)-(5R,6R,7R,14S)-9a-cyclo-propyl-methyl-4,5-epoxy-6,14-ethano-3-hydroxy-6-methoxymorphinan-7-yl]-3,3-di-methylbutan-2-ol], the Solubility of buprenorphine in data set [1] (BA/OA vehicle, OA wt % 0, room temperature) worked out at 21.2%; in data set [1] (BA/OA vehicle, OA wt % 5, room temperature) it was 22.5%; in data set [1] (BA/OA vehicle, OA wt % 10, room temperature) it was 25.4%; in data set [1] (BA/OA vehicle, OA wt % 15, room temperature), 30.7%*; in data set [1] (BA/OA vehicle, OA wt % 18, room temperature) it was 30.8%*; in data set [1] (BA/OA vehicle, OA wt % 30, room temperature) it was 33.1%*. Also, the Solubility of buprenorphine in data set [1] (BA/OA vehicle, OA wt % 40, room temperature) is reported as 36.2%*; in data set [1] (OA wt % 100, room temperature), 27.7%.
As for `N[C@@H](CCC(=O)N[C@@H](CS)C(=O)NCC(=O)O)C(=O)O` [Glu, glutathione], the “capacity of color mitigation in buprenorphine formulation” value (“capacity of color mitigation” below) in data set [2] is “milder color stabilizing effect”.
On to `O=C(O)CS` [TGA, thioglycolic acid], for which the “capacity of color mitigation” value in data set [2] was “stronger capacity of color mitigation”.
Consider `O=C(O)CCCCC1CCSS1` (stereo not shown) [LipA, lipoic acid], for which the “capacity of color mitigation” value in data set [2] is on record as “milder color stabilizing effect”.
Take `N[C@@H](CS)C(=O)O` [Cys, cysteine]: the “capacity of color mitigation” value in data set [2] is on record as “milder color stabilizing effect”.
Take `OCC(O)CS` (stereo not shown) [MTG, monothioglycerol]: the “capacity of color mitigation” value in data set [2] is listed as “stronger capacity of color mitigation”. Further, under “BA/OA solution”, the “benzyl aldehyde formation promoted by thiolated antioxidant” value is listed as “positive benzyl aldehyde formation”. The “benzyl aldehyde formation with addition of VC” value (thiolated antioxidant containing BA/OA solution) was “inhibition effect of benzyl aldehyde”.
With `O=C([O-])CS.[Na+]` [STG, sodium thioglycolate], in data set [2], the “capacity of color mitigation” value is on record as “stronger capacity of color mitigation”.
